Measured values: patent publication US9499553B2 (CHUGAI SEIYAKU KABUSHIKI KAISHA, priority 2013, dated 2016)
Structures can show the parent of a compound that is named as a salt. Where two headings read alike, the source gives them in different places.

Experiments:
Type in all cases: cell-based
human NaPi-IIb = molecular target: T1, human NaPi-IIb (Homo sapiens, UniProt O95436); assay: Inhibitory effect on 33PO4 uptake into human NaPi-IIb-expressing CHO cells
T1 construct: expressed in transfected cells
T1 sequence (O95436 1-690): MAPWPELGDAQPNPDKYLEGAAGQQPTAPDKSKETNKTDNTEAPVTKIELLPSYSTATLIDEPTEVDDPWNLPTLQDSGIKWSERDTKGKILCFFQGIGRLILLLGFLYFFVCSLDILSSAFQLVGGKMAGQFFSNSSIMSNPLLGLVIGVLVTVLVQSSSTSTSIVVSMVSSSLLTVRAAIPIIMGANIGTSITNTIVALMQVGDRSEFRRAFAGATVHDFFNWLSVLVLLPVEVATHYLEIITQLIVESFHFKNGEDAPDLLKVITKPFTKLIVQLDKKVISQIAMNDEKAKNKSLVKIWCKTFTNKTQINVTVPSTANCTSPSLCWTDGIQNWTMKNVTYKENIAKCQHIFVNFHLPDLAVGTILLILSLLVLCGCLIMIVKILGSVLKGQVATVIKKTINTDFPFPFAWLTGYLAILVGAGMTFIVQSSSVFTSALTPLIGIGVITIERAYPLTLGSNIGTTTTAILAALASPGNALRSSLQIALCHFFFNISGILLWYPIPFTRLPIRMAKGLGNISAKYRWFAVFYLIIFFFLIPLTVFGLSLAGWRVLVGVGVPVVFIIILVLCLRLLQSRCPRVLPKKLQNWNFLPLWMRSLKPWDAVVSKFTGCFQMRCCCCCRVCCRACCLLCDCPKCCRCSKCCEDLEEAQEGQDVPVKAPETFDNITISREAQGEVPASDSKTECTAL
How it was run: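 Uptake of ³³PO4 was measured by scintillation counting after ice-cold buffer A washes. Cells were CHO stably expressing human NaPi-IIb, seeded overnight, and exposed to ³³PO4 in buffer A at room temperature.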

human PiT-1 = molecular target: T2, human PiT-1 (Homo sapiens, UniProt Q8WUM9); assay: Inhibitory effect on 33PO4 uptake into human PiT-1-expressing CHO cells; details: compound 0.24, 1.2, 6 or 30 μM, pH 6.5, read-out: IC50 against 33PO4 uptake into human PiT-1-expressing cells
T2 construct: expressed in transfected cells; host or cells: CHO cells
T2 sequence (Q8WUM9 1-679): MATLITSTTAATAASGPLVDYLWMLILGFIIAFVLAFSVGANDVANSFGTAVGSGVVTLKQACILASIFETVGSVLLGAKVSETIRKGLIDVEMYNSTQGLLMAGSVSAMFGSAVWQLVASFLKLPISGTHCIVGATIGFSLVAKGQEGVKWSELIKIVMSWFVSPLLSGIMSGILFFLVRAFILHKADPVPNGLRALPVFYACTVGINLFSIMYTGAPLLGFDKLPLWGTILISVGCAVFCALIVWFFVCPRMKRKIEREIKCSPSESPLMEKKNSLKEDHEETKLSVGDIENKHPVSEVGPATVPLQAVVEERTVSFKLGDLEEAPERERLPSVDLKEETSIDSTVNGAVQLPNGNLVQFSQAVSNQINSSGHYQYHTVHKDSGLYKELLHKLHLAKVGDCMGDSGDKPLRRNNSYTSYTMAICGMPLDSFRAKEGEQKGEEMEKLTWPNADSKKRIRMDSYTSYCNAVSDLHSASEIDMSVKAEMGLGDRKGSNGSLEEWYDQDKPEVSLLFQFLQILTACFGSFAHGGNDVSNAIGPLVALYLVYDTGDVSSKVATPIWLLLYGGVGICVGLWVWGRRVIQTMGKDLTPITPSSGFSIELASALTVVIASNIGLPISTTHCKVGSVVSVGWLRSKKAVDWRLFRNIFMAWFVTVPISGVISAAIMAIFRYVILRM
Experimental: Test Example 3: Inhibitory Effect on ^33PO4 Uptake into Human PiT-1-Expressing Cell
(§1) CHO cells were transfected with human PiT-1 expression plasmids or empty vectors to prepare human PiT-1-expressing cells and empty vector-expressing cells. The human PiT-1-expressing cells or the empty vector-expressing cells were inoculated to a 96-well plate and incubated overnight in a CO2 incubator. […] After a given time, a 1/20 volume of buffer A containing ^33PO4 was added thereto and reacted at room temperature. After washing with ice-cold buffer A, a liquid scintillator was added to each reaction mixture, and the amount of ^33PO4 uptake was measured using TopCount. The rate of inhibition was determined according to the following expression: Rate (%) of inhibition=(1−(Amount of ^33PO4 uptake in the compound-supplemented well containing the human PiT-1-expressing cells−Amount of ^33PO4 uptake in the compound-supplemented well containing the empty vector-expressing cells)/(Amount of ^33PO4 uptake in the DMSO-supplemented well containing the human PiT-1-expressing cells −Amount of ^33PO4 uptake in the DMSO-supplemented well containing the empty vector-expressing cells))×100

human PiT-2 = molecular target: T3, human PiT-2 (Homo sapiens, UniProt Q08357); assay: Inhibitory effect on 33PO4 uptake into human PiT-2-expressing CHO cells; details: pH 6.5, read-out: IC50 against 33PO4 uptake into human PiT-2-expressing cells
T3 construct: expressed in transfected cells; host or cells: CHO cells
T3 sequence (Q08357 1-652): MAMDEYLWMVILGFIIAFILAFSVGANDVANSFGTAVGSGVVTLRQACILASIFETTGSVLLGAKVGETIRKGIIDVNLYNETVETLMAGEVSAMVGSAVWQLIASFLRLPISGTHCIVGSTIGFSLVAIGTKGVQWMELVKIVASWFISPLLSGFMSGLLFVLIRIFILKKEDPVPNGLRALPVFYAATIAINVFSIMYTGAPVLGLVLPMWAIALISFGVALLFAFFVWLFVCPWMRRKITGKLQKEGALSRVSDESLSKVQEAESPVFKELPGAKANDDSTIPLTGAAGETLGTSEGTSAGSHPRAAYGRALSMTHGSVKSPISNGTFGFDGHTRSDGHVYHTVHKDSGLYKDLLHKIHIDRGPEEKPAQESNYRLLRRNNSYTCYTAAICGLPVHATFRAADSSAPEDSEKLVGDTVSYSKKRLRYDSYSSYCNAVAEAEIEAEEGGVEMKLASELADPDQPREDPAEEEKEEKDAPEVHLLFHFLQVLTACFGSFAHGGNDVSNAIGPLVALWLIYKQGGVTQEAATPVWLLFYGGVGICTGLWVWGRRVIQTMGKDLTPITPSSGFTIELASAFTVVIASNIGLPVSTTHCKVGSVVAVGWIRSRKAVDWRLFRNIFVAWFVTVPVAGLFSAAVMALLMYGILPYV
Experimental: Test Example 4: Inhibitory Effect on ^33PO4 Uptake into Human PiT-2-Expressing Cell
as §1, with “PiT-2” for “PiT-1”, “PiT-2-expressing” for “PiT-1-expressing”

[1] = read-out: IC50 against 33PO4 uptake into human NaPi-IIb-expressing cells

Row | Structure (SMILES) | IC50 (human NaPi-IIb; read-out: IC50) | IC50 (human PiT-1) | IC50 (human PiT-2) | IC50 (human NaPi-IIb; [1])
1 | CN1[C@@H](C(C)(C)C)C(O)=C(C(=O)Nc2ccc(Cl)cc2-c2ccc(C(F)(F)F)nc2)C(=O)N1Cc1ccc(OCCN2CCOCC2)c(F)c1F [Example 267, (3S)-3-tert-Butyl-N-[4-chloro-2-[6-(trifluoromethyl)pyridin-3-yl]phenyl]-1-[[2,3-difluoro-4-(2-morpholin-4-ylethoxy)phenyl]methyl]-4-hydroxy-2-methyl-6-oxo-3H-pyridazine-5-carboxamide] | 7.5 µM | 4.1 µM | 4.7 µM | 
2 | C[C@]12CCCN1N(Cc1ccc(CN3CCOCC3)c(F)c1F)C(=O)C(C(=O)Nc1ccc(C(F)(F)F)cc1-c1ccc(C(F)(F)F)nc1)=C2O [Example 164, (4aR)-1-[[2,3-Difluoro-4-(morpholin-4-ylmethyl)phenyl]methyl]-4-hydroxy-4a-methyl-2-oxo-N-[4-(trifluoromethyl)-2-[6-(trifluoromethyl)pyridin-3-yl]phenyl]-6,7-dihydro-5H-pyrrolo [1,2-b]pyridazine-3-carboxamide; hydrochloride] | 5 µM | 4.1 µM | 4.1 µM | 
3 | CN(C[C@H](O)[C@@H](O)[C@H](O)[C@H](O)CO)C(=O)CCCOc1ccc(CN2C(=O)C(C(=O)Nc3ccc(C(F)(F)F)cc3-c3cc(C(F)(F)F)ncn3)=C(O)C3(CCCC3)N2C)c(F)c1F [Example 418, 7-[[2,3-Difluoro-4-[4-[methyl-[(2S,3R,4R,5R)-2,3,4,5,6-penta-hydroxyhexyl]amino]-4-oxobutoxy]phenyl]methyl]-10-hydroxy-6-methyl-8-oxo-N-[4-(trifluoromethyl)-2-[6-(trifluoromethyl)pyrimidin-4-yl]phenyl]-6,7-diazaspiro[4.5]dec-9-ene-9-carboxamide] |  | 4.1 µM | 4.6 µM | 10.9 µM
4 | C[C@]12CCCN1N(Cc1ccc(C#CCN3CCOCC3)c(F)c1F)C(=O)C(C(=O)Nc1ccc(C(F)(F)F)cc1-c1ccc(C(F)(F)F)nc1)=C2O [Example 140, (4aR)-1-[[2,3-Difluoro-4-(3-morpholin-4-ylprop-1-ynyl)phenyl]methyl]-4-hydroxy-4a-methyl-2-oxo-N-[4-(trifluoromethyl)-2-[6-(tri-fluoromethyl)pyridin-3-yl]phenyl]-6,7-dihydro-5H-pyrrolo[1,2-b]pyridazine-3-carboxamide] | 16.2 µM | 3.8 µM | 3.8 µM | 

Continued by falling IC50 (human PiT-2), values first:

Row | IC50 (human NaPi-IIb; read-out: IC50) | IC50 (human PiT-1) | IC50 (human PiT-2) | Structure (SMILES) | IC50 (human NaPi-IIb; [1])
5 | 4.5 µM | 7.9 µM | 10.6 µM | CSc1ccc(-c2cc(Cl)ccc2NC(=O)C2=C(O)[C@H](C(C)(C)C)N(C)N(Cc3ccc(OCCN4CCOCC4)c(F)c3F)C2=O)cn1 [Example 269, (3S)-3-tert-Butyl-N-[4-chloro-2-(6-methylsulfanyl-pyridin-3-yl)phenyl]-1-[[2,3-difluoro-4-(2-morpholin-4-ylethoxy)phenyl]methyl]-4-hydroxy-2-methyl-6-oxo-3H-pyridazine-5-carboxamide] | 
6 | 3.2 µM | 3.9 µM | 7.2 µM | C[C@]12CCCN1N(Cc1ccc(OCCCCCCOC[C@H](O)CO)c(F)c1F)C(=O)C(C(=O)Nc1cnc(C(F)(F)F)nc1-c1ccc(C(F)(F)F)nc1)=C2O [Example 156, (4aR)-1-[[4-[6-[(2R)-2,3-Dihydroxypropoxy]hexoxy]-2,3-difluorophenyl]methyl]-4-hydroxy-4a-methyl-2-oxo-N-[2-(trifluoromethyl)-4-[6-(trifluoromethyl)pyridin-3-yl]pyrimidin-5-yl]-6,7-dihydro-5H-pyrrolo[1,2-b]pyridazine-3-carboxamide] | 
7 | 14.6 µM | 3.4 µM | 3.6 µM | Cc1c(C#N)ncnc1-c1cc(C(F)(F)F)ccc1NC(=O)C1=C(O)[C@H](C(C)(C)C)N(C)N(Cc2ccc(OCCN3CCOCC3)c(F)c2F)C1=O [Example 270, (3S)-3-tert-Butyl-N-[2-(6-cyano-5-methylpyrimidin-4-yl)-4-(trifluoromethyl)phenyl]-1-[[2,3-difluoro-4-(2-morpholin-4-yl-ethoxy)phenyl]methyl]-4-hydroxy-2-methyl-6-oxo-3H-pyridazine-5-carboxamide] | 
8 | 7.9 µM |  | 3.2 µM | Cc1c(C#N)ncnc1-c1cc(C(F)(F)F)ccc1NC(=O)C1=C(O)[C@@]2(C)CCCN2N(Cc2ccc(OCCN3CCOCC3)c(F)c2F)C1=O [Example 22, (4aR)-N-[2-(6-Cyano-5-methylpyrimidin-4-yl)-4-(trifluoromethyl)phenyl]-1-[[2,3-difluoro-4-(2-morpholin-4-ylethoxy)phenyl]methyl]-4-hydroxy-4a-methyl-2-oxo-6,7-dihydro-5H-pyrrolo [1,2-b]pyridazine-3-carboxamide] | 
9 |  | 0.9 µM | 1.4 µM | COCCN(C)CCOc1ccc(CN2C(=O)C(C(=O)Nc3ccc(C(F)(F)F)cc3-c3ncnc(C(F)(F)F)c3C)=C(O)C3(CCCC3)N2C)c(F)c1F [Example 416] | 5.8 µM
